Six compounds from the NIST ThermoML archive (doi:10.1021/je3013028) can be followed below.

For data set [1] the following is noted: Liquid, Ebulliometric method (Recirculating still).
The nature of data set [2]: refractive index (Na D-line) (dimensionless). The conditions noted are these: 298.15 K; 101.33 kPa; Liquid; Standard Abbe refractometry.

± gives the expanded uncertainty stated by the source.

For orientation: vapor or sublimation pressure means the pressure of vapour in equilibrium with the condensed phase. As for `COC` [dimethyl ether], the “vapor or sublimation pressure” value in data set [1] (308.14 K) amounted to 786.6 ± 3.5 kPa; in data set [1] (335.63 K) it was 1540 ± 6.2 kPa; in data set [1] (336.63 K) it was 1572.2 ± 7.7 kPa; in data set [1] (336.7 K), 1572.2 ± 7.7 kPa.

One may read the refractive index as a measure of how strongly the sample bends light. `c1ccsc1` [thiophene]: the “vapor or sublimation pressure” value is listed as 16.9 ± 0.8 kPa in data set [1] (308.14 K) and 49.4 ± 0.8 kPa in data set [1] (335.63 K). For the same compound, the refractive index in data set [2] amounted to 1.52869 ± 0.00031.

Regarding `C=CCCCC` [hex-1-ene], the figures for the “vapor or sublimation pressure” value in data set [1] (328.15 K), in data set [1] (335.74 K) and in data set [1] (336.09 K) were 77 ± 0.5 kPa, 98.7 ± 0.6 kPa and 99.8 ± 0.6 kPa, respectively. In addition, in data set [2], the refractive index was found to be 1.3851 ± 0.0003.

For `CC(C)(C)S` [2-methyl-2-propanethiol], in data set [1] (336.69 K), the “vapor or sublimation pressure” value amounted to 98.5 ± 0.9 kPa. Besides, the refractive index in data set [2] is 1.42 ± 0.00031.

Take `CCCS` [1-propanethiol]: in data set [2], the refractive index turned out to be 1.4353 ± 0.0003.

Take `CCSCC` [3-thiapentane]: in data set [1] (336.63 K), the “vapor or sublimation pressure” value is recorded as 39.7 ± 0.8 kPa. Also, the refractive index in data set [2] is 1.43998 ± 0.00032.
